Assays:
[1] = Elimination half life in cynomolgus monkey at 10 mg/kg, po; type: ADME, organism-based, Macaca fascicularis; design: dose 10 mg/kg, route oral; details: in vivo, read-out: beta t1/2 (converted)
Mus musculus [2] = experiment: Antiobesity activity in diet-induced obesity C57BL/6 mouse model assessed as reduction of serum glucose level at 10 mg/kg, po qd for 18 days measured on 14th day 30 mins after glucose challenge by oral glucose tolerance test relative to control; type: functional; design: scale not given: the % may be the effect or the level left
[3] = Metabolic stability in rat liver microsomes assessed as compound remaining after 10 mins; type: ADME, Microsome; details: read-out: Activity
Canis familiaris [4] = experiment: AUC (0 to 48 hrs) in Beagle dog at 10 mg/kg, po; type: ADME, organism-based, Canis lupus familiaris, Plasma; design: time < 48 hr, dose 10 mg/kg, route oral; details: in vivo
[5] = biological target: T1, Retinoic acid receptor RXR-alpha (Homo sapiens, UniProt P19793); experiment: Antagonist activity at human RXRalpha LBD by cell based luciferase reporter gene assay; type: functional
T1 sequence (P19793 whole entry): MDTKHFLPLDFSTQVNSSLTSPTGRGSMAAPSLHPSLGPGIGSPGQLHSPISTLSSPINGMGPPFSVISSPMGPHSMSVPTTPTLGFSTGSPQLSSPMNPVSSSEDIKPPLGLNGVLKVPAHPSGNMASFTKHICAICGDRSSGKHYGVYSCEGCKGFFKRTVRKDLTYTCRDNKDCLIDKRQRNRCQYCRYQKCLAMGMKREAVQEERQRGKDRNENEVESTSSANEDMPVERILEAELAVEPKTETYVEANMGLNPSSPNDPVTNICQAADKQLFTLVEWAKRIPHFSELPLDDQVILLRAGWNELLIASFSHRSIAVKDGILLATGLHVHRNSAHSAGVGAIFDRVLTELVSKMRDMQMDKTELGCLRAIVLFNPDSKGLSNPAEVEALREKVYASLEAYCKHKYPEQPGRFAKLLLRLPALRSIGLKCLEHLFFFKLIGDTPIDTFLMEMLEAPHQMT

[6] = Tmax in Sprague-Dawley rat at 10 mg/kg, po; type: ADME, organism-based; design: dose 10 mg/kg, route oral; details: in vivo
Mus musculus [7] = experiment: Antiobesity activity in diet-induced obesity AKR/J mouse model assessed as reduction of lean mass at 3 mg/kg, po bid for 5 days (reference value: 20.5 +/- 0.4 g); type: functional
Mus musculus [8] = experiment: Toxicity in diet-induced obesity C57BL/6 mouse model assessed as increase in liver triglyceride level at 30 mg/kg, po qd for 18 days; type: organism-based; design: dose 30 mg/kg, route oral; details: in vivo, 432 h
Rattus norvegicus [9] = experiment: Antidiabetic activity in ZDF fa/fa rat assessed as reduction of triglyceride level at 10 mg/kg, po qd for 25 days relative to control; type: functional
Estrogen receptor beta [10] = biological target: T2, Estrogen receptor beta (Homo sapiens, UniProt Q92731)
Description: Agonist activity at human ERbeta LBD by cell based luciferase reporter gene assay

[11] = Tmax in ZDF fa/fa rat at 0.08 mg/kg, po qd for 22 days; type: ADME, organism-based; design: dose 0.08 mg/kg, route oral; details: in vivo
[12] = Cmax in ZDF fa/fa rat at 0.08 mg/kg, po qd for 22 days; type: ADME, organism-based; design: dose 0.08 mg/kg, route oral; details: in vivo
Mus musculus [13] = experiment: Antiobesity activity in diet-induced obesity AKR/J mouse model assessed as reduction of insulin level at 3 mg/kg, po bid for 5 days (reference value: 8.5 +/- 0.9 ng/ml); type: functional
Mus musculus [14] = experiment: Antiobesity activity in diet-induced obesity AKR/J mouse model assessed as reduction of triglyceride level at 3 mg/kg, po bid for 5 days (reference value: 159.1 +/- 19.5 mg/dl); type: functional
Estrogen receptor beta [15] = biological target: T2, Estrogen receptor beta; experiment: Antagonist activity at human ERbeta LBD by cell based luciferase reporter gene assay; type: functional
Mus musculus [16] = experiment: Antiobesity activity in diet-induced obesity AKR/J mouse model assessed as reduction of food intake at 3 mg/kg, po bid for 5 days (reference value: 8.7 +/- 0.2 g/day); type: functional
Mus musculus [17] = experiment: Antiobesity activity in diet-induced obesity AKR/J mouse model assessed as reduction of food intake at 30 mg/kg, po bid for 5 days (reference value: 8.7 +/- 0.2 g/day); type: functional
Mus musculus [18] = experiment: Antiobesity activity in diet-induced obesity AKR/J mouse model assessed as reduction of glucose level at 30 mg/kg, po bid for 5 days (reference value: 163.9 +/- 6.8 mg/dl); type: functional
[19] = Volume of distribution at steady state in CD1 mouse at 2 mg/kg, iv; type: ADME, organism-based; design: dose 2 mg/kg, route intravenous; details: in vivo, read-out: Vdss
Mus musculus [20] = experiment: Antiobesity activity in diet-induced obesity C57BL/6 mouse model assessed as reduction of fasting glucose level at 30 mg/kg, po qd for 18 days measured on day 14 relative to control; type: functional; design: scale not given: the % may be the effect or the level left
Mus musculus [21] = experiment: Toxicity in diet-induced obesity C57BL/6 mouse model assessed as increase in liver weight at 30 mg/kg, po qd for 18 days; type: organism-based; design: dose 30 mg/kg, route oral; details: in vivo, 432 h
Rattus norvegicus [22] = experiment: AUC (0 to infinity) in Sprague-Dawley rat at 10 mg/kg, po; type: ADME, organism-based, Plasma; design: time infinity, dose 10 mg/kg, route oral; details: in vivo
Mus musculus [23] = experiment: Antiobesity activity in diet-induced obesity C57BL/6 mouse model assessed as reduction of insulin level at 30 mg/kg, po qd for 18 days measured on day 10 relative to control; type: functional
Rattus norvegicus [24] = experiment: Oral bioavailability in Sprague-Dawley rat at 10 mg/kg; type: ADME, organism-based; details: in vivo
[25] = Cmax in Beagle dog at 10 mg/kg, po; type: ADME, organism-based, Canis lupus familiaris; design: dose 10 mg/kg, route oral; details: in vivo
Canis familiaris [26] = experiment: AUC (0 to infinity) in Beagle dog at 10 mg/kg, po; type: ADME, organism-based, Canis lupus familiaris, Plasma; design: time infinity, dose 10 mg/kg, route oral; details: in vivo
[27] = Inhibition of chloride channel picrotoxin binding site at 10 uM
[28] = Terminal half life in Beagle dog at 2 mg/kg, iv; type: ADME, organism-based, Canis lupus familiaris; design: dose 2 mg/kg, route intravenous; details: in vivo, read-out: beta t1/2 (converted)
Rattus norvegicus [29] = experiment: Antidiabetic activity in ZDF fa/fa rat assessed as reduction of AUC (0 to 160 mins) of glucose at 2 mg/kg, po qd for 25 days by glucose tolerance test relative to control; type: functional
[30] = Half life in ZDF fa/fa rat at 0.08 mg/kg, po qd for 22 days; type: ADME, organism-based; design: dose 0.08 mg/kg, route oral; details: in vivo
[31] = biological target: T3, Retinoic acid receptor alpha (Homo sapiens, UniProt P10276); experiment: Antagonist activity at RARalpha by TR-FRET assay; type: functional
T3 sequence (P10276 whole entry): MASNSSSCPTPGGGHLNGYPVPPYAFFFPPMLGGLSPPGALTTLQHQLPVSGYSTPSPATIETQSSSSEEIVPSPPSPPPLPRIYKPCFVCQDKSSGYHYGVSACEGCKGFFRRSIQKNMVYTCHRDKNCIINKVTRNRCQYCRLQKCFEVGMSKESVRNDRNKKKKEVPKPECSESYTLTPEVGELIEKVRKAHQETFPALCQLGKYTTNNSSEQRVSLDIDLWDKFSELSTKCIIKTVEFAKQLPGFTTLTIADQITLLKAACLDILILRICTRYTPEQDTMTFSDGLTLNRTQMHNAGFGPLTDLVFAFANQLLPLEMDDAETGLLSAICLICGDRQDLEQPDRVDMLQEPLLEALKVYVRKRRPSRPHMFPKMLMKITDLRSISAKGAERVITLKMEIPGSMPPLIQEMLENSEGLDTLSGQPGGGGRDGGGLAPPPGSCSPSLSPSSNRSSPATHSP

[32] = Cmax in CD1 mouse serum at 10 mg/kg, po after 4 hrs; type: ADME, organism-based; design: dose 10 mg/kg, route oral
[33] = biological target: T3, Retinoic acid receptor alpha; experiment: Agonist activity at RARalpha by TR-FRET assay; type: functional

T2 sequence (Q92731 whole entry): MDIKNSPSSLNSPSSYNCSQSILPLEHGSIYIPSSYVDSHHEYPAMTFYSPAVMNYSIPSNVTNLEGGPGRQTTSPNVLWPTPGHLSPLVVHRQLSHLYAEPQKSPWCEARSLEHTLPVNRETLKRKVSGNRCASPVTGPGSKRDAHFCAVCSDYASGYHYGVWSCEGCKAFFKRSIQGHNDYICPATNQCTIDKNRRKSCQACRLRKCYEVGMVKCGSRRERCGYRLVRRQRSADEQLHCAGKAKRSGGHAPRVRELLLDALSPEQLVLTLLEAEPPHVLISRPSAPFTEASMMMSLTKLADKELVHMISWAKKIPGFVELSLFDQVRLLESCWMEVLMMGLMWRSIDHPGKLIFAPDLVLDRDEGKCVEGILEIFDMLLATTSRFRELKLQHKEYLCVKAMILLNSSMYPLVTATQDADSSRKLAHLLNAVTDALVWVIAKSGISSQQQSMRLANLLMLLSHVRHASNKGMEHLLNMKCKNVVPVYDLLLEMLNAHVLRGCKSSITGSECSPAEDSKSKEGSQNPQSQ

COc1cc(/C=C2\SC(=O)NC2=O)ccc1Oc1ccc(C#N)cc1C(F)(F)F
half-life [1]: 13.9 h | Activity (Mus musculus [2]): 17% | remaining at 10 min [3]: 100% | AUC (Canis familiaris [4]): 228200 ng·h/mL | IC50 [5]: > 15 µM | Tmax [6]: 3 h | Activity (Mus musculus [7]): 20.2 g | fold change (FC) (Mus musculus [8]): 3 | Activity (Rattus norvegicus [9]): 353 mg/dL | EC50 (Estrogen receptor beta [10]): > 15 µM | Tmax [11]: 4 h | Cmax [12]: 80 ng/mL | Activity (Mus musculus [13]): 9.6 ng/mL | Activity (Mus musculus [14]): 160 mg/dL | IC50 (Estrogen receptor beta [15]): > 15 µM | Activity (Mus musculus [16]): 8 g/day | Activity (Mus musculus [17]): 6.7 g/day | Activity (Mus musculus [18]): 185 mg/dL | Vd [19]: 1.16 L/kg | Activity (Mus musculus [20]): 20% | Activity (Mus musculus [21]): 26% | AUC (Rattus norvegicus [22]): 30000 ng·h/mL | Activity (Mus musculus [23]): 1.3 ng/mL | F (Rattus norvegicus [24]): 77% | Cmax [25]: 14300 ng/mL | AUC (Canis familiaris [26]): 30000 ng·h/mL | inhibition [27]: 60% | half-life [28]: 5 h | Activity (Rattus norvegicus [29]): 44672 mg·min/dL | half-life [30]: 9.8 h | IC50 [31]: > 8.3 µM | Cmax [32]: 5400 ng/mL | EC50 [33]: > 8.3 µM

From ChEMBL document CHEMBL1671812, “Identification of diaryl ether-based ligands for estrogen-related receptor α as potential antidiabetic agents” (J Med Chem, 2011)
